Results on one compound are retold here after patent US11471484B2, “Fullerene and its use to maintain good health and to prolong the expected lifespan of mammals” (priority 2011, dated 2022).

Data set [1] deals with rats. As to the kind of experiment: Acute or sub-acute toxicity in rats. The format is in vivo. The conditions noted are these: large amounts administered. The text has this: (§1) Free radicals are constantly formed in vivo. Some of these molecules are physiologically useful, but they can also result in pathological oxidative stress to cells and tissues. Endogenous defences include both antioxidants and repairing systems. However, excess production of free radicals, their production in inappropriate relative amounts or deficiencies in endogenous defences can have deleterious effects. Free radicals can cause oxidative damage to lipids, DNA, bio molecules, rises in the concentration of intracellular calcium, as well as activation of proteases, nucleases and protein kinases. Considerable evidence supports the view that oxidative damage involving free radicals occurs in most, if not all, human diseases. Oxidative stress is now recognized as an important contributor to the development of many human diseases including liver fibrosis, ischemia-reperfusion, atherosclerosis, several neurological disorders and age-related cancer as well as to process of ageing. Thus antioxidants and systems that can protect against oxidative stress are needed to maintain health and prolong the expected lifespan in metazoans. This has led to attempts to develop additional antioxidants to supplement the antioxidant defences of cells as potential therapeutic agents. […]

The subject of the next data set is mice. As to the kind of experiment: Acute or sub-acute toxicity in mice. The conditions noted are these: large amounts administered. The format is in vivo.
Text: as §1

The test system of data set [2] is acute carbon tetrachloride intoxication in rats (free-radical-mediated liver injury). As to the kind of experiment: C60-induced protection of the liver against acute toxicity of carbon tetrachloride in rats. The format is in vivo. The note with it: CCl4 model. The text has this:
Carbon tetrachloride is a classical hepatotoxicant that causes rapid liver damage progressing from steatosis to centrilobular necrosis. CCU intoxication in rodents is an important model far elucidation of the mechanism of action of hepatotoxic effects such as fatty degeneration, fibrosis, hepatocellular death, and carcinogenicity. These effects are consistent with the known induced metabolic activation of CCl4 to reactive intermediates, including CCl3″ and CCl02′ free radicals, and mobilization of intracellular calcium. Kupffer cells (liver resident macrophages) participate in the mechanism of toxicity of CCl4 in vivo by release of chemoattractants for neutrophils and a series of chemical mediators (cytokines). Both expression and synthesis of these cytokines are mainly modulated through redox-sensitive reactions. […] In a previous work, the effects of C60-pretreatments on acute carbon tetrachloride intoxication in rats, a classical model for studying free-radical-mediated liver injury was reported.

Data set [3] is described as follows: Pharmacokinetics and biodistribution of an oily solution after oral and intra-peritoneal administration in rats. It counts as in vivo, male Wistar rats. How it is done:
Pharmacokinetic studies were carried out with male Wistar rats (weighing 200-220 g). Rats were housed in individual cages and maintained in an air-conditioned room (22-25° C.) on a 12 h light/dark cycle with water and food available. The rats were acclimated for 7 days and they were fasted overnight but with access to water, before treatment.
Under general anesthesia, a catheter was introduced into the rat right jugular vein, positioned subcutaneously with the tip in the inter-scapular region. The prepared rats were then allowed to recover for 24 h, and the blood catheters were flushed with 0.9% NaCl solution containing 20 I U/ml of heparin to avoid possible clot obstruction. Before Ceo administration, the rats were fasted overnight but with access to water. The same single dose of Ceo (4 mg/kg) was delivered orally, by a gavages needle, or intra-peritoneally to two groups of three rats. Blood (0.20 ml) was withdrawn via the canular prior to dosing (f=0) and at 15, 30, 60 min and then at 2, 4, 8, 10, 12, 24 and 48 h post-dosing. Antithrombin heparin (20 IU/ml) was added in each blood sample. After each blood collection 0.20 ml of sterile 0.9% NaCl solution were injected to the animal, to avoid hypovolemia. The rats were sacrificed 48 h after eo administration for organ collection (livers, spleens, and brains).
Consequently, the area under the curve (AUC) is about 5 times larger when Ceo is administered by i.p. route as compared to oral route.

In data set [4] the test system is rats. As to the kind of experiment: Longevity and chronic toxicity study in rats, oral gavage. It counts as in vivo. Here is the method:
The rats were housed one per cage and acclimated for 14 days, before dosing. Three groups of 10 rats (10 months old, weighing 495±31 g) were administered daily for one week, then weekly until the end of the second month and then every two weeks until the end of the 7th month, by gavages with 1 ml of water or olive oil or Ceo dissolved in olive oil (0.8 mg/ml), respectively. The rats were weighed before each dosing. Routine observations following official recommendations (EC Commission Directive 2004/73/EC of 29 Apr. 2004 Adapting to Technical Progress for the Twenty-Ninth Time Council Directive 67/548/EEC on the Approximation of the Laws, Regulations and Administrative Provisions Relating to the Classification, Packaging and Labeling of Dangerous Substances. O.J. No. L1522004) were made on all animals inside and outside the cage once a day throughout the study for signs of departure from normal activity, morbidity and mortality.
This experiment was initiated after observing that Ceo is absorbed through oral administration. To study the chronic toxicity of Ceo we designed a protocol according to the general guidelines of US food and drug administration (Chronic Toxicity Studies with Rodents in Toxicological Principles for the Safety Assessment of Food Ingredients. Redbook 2000, revised July 2007, Chapter IV.C.5.a. IV.C.5.a.) with some modifications. […]

The subject of data set [5] is acute carbon tetrachloride intoxication in rats (free-radical-mediated liver injury). The conditions noted are these: CCl4 model, intra-peritoneal, aqueous suspension; cited from earlier work.
The nature of data set [6]: Dissolution of C60 in vegetable oil. It counts as physicochemical. The conditions noted are these: in less than one week.
Text: as §1

As for `c12c3c4c5c1c1c6c7c2c2c8c3c3c9c4c4c%10c5c5c1c1c6c6c%11c7c2c2c7c8c3c3c8c9c4c4c9c%10c5c5c1c1c6c6c%11c2c2c7c3c3c8c4c4c9c5c1c1c6c2c3c41` [[60]fullerene], the “acute or sub-acute toxicity” value in the data set with rats [1] and with mice was “no acute or sub-acute toxicity could be observed” each time. The “activity in solution compared with suspension” value in data set [2] (compared with results of Nano Letters 2005) was “about 100 times”. The “time of effect after administration” value in data set [2] (fullerene in solution) stood at 24 h. Also, the “area under the curve (AUC), i.p. route as compared to oral route” value in data set [3] (4 mg/kg, i.p. versus oral) is on record as “about 5 times”. Also, the “distribution, brain barrier” value in data set [3] (4 mg/kg, oral or i.p.) is listed as “can cross the brain barrier”. In data set [3] (intraperitoneal or oral administration), the absorption and elimination entry is “absorbed and eliminated”. Further, in the data set on rats [4] (oral administration), the longevity result is listed as “increases significantly the longevity”. Further, the “behaviour or growth disorder” value in the data set on rats [4] (per os 1 ml of olive oil containing 0.8 mg C60 (FIG. 1)) is given as “No behaviour or growth disorder could be observed”. Besides, the “day of better protection after administration” value in data set [5] was 14 days. Besides, the most effective dose result in data set [5] is reported as “about 2.5 g/kg of body-weight”. Also, the “amount dissolved per g of oil” value in data set [6] (olive oil) and in data set [6] (soybean oil) was “up to 1 mg of C60 per g” in each case.
